Holding throughout (type): biochemical
One assay addresses T1, panel of kinases (Homo sapiens, UniProt P51813).
T1 sequence (P51813 1-675): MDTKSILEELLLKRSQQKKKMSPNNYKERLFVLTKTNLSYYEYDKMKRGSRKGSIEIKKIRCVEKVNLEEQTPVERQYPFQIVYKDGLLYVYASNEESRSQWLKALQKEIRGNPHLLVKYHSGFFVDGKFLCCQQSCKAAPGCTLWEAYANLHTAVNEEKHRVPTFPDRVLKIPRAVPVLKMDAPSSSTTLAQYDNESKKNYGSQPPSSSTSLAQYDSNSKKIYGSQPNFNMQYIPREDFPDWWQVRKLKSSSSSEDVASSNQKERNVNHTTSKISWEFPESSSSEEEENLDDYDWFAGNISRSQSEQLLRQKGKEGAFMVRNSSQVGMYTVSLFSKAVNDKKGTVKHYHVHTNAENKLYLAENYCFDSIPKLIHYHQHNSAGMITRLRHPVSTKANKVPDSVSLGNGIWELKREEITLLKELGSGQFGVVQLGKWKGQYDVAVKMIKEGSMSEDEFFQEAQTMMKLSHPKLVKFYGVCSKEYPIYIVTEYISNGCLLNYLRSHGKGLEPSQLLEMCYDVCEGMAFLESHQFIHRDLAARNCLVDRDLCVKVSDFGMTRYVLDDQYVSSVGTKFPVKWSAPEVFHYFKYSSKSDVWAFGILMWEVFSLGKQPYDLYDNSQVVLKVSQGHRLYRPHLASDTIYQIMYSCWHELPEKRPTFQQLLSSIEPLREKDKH
The experiment in a line: Inhibition of a panel of kinases (in vitro HotSpot kinase assay, 33P-ATP, 1 μM ATP), other kinases. Conditions: BMX wild-type, read-out: BMX-WT IC50. In a few lines: (§1)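 Radiometric read-out: 33P transfer to a suitable substrate by each purified enzyme, ATP at 1 μM. Values are degree of inhibition.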

A further assay concerns the target T2, Btk (Homo sapiens, UniProt Q06187).
T2 construct: purified from insect cells as a full-length construct containing a N-terminal 6X-His tag; His6 (N); made in house; host or cells: insect cells (Method C)
The experiment in a line: Btk in vitro inhibitory activity (one of Method A TR-FRET, Method B electrophoretic mobility shift, Method C radiometric filter binding). In a few lines:
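Three alternative formats were used. A radiometric filter-binding read used 8 nM full-length His-BTK with 0.2 mg/mL poly(Glu-Tyr) 4:1 (C); microfluidic separation of 1 μM FAM-peptide by 1 nM BTK gave IC50 from 12-point curves (B); TR-FRET at Km ATP, 0.5 nM Btk, gave Ki(app)-derived IC50 (A).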
A general note: In EMSA bound probe runs differently from free probe, usually more slowly.

The target of a further assay is T3, TEC (Homo sapiens, UniProt P42680).
T3 sequence (P42680 1-631): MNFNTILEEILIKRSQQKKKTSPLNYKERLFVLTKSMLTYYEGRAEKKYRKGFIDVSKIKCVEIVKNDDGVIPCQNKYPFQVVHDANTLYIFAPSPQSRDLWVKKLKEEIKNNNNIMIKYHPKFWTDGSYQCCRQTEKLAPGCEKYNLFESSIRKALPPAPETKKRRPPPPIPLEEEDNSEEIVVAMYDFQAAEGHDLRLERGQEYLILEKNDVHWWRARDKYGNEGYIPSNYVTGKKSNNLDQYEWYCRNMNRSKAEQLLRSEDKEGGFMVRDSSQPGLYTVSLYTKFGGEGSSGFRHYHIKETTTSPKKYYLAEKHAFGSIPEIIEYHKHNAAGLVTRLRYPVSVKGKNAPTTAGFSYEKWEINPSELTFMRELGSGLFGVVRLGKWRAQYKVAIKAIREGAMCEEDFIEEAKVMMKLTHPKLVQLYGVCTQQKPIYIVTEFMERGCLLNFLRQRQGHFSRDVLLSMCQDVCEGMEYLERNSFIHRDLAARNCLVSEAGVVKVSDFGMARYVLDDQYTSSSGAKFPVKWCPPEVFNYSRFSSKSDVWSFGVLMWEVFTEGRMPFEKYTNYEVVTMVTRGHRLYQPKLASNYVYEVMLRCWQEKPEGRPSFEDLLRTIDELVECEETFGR
The experiment in a line: Inhibition of a panel of kinases (in vitro HotSpot kinase assay, 33P-ATP, 1 μM ATP). Conditions: for IC50: HotSpot kinase assay, 1 μM ATP; for TEC/Btk: ratio of TEC IC50 to Btk IC50 (selectivity). In a few lines:
as §1

Setting [1] is: wild-type Btk, read-out: Btk-WT IC50.
[2] abbreviates: method is one of A, B or C, not stated which, read-out: IC50 values against Btk.

Where two headings read alike, the source gives them in different places.

T2 sequence (Q06187 whole entry): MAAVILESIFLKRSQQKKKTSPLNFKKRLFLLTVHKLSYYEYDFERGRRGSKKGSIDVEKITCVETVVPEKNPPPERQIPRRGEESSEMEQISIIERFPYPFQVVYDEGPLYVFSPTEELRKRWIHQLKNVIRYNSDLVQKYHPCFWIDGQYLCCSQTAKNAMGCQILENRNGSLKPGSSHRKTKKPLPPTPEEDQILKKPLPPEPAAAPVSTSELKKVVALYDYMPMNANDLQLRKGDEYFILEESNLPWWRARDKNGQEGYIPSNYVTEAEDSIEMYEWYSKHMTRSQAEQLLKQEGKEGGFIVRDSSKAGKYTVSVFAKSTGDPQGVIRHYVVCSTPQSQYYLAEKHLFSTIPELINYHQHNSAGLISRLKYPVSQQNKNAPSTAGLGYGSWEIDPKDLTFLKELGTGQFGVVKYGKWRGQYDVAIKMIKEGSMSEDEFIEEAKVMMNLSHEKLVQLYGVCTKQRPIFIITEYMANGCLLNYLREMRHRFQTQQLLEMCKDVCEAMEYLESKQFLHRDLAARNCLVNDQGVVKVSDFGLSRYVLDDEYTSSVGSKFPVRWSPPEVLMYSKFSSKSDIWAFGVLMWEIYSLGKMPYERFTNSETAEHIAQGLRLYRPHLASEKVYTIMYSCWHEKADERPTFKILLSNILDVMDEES

What is called IC50 is the concentration needed to halve the response being measured. Turning to `CC(C)(C)c1cc(C(=O)NCc2ccc(-c3ccnc4[nH]nc(N[C@@H]5CCNC5)c34)cc2F)no1` [Example 63, 5-tert-butyl-N-{[2-fluoro-4-(3-{[(3R)-pyrrolidin-3-yl]amino}-1H-pyrazolo[3,4-b]pyridin-4-yl)phenyl]methyl}-1,2-oxazole-3-carboxamide], the IC50 on panel of kinases was more than 10000 nM; at Btk (setting [1]), 10.2 nM; at TEC, 7860 nM. For the same compound, the TEC/Btk at TEC was determined as 771.

For the compound `CC(C)(C)c1nc(C(=O)NC2(c3ccc(-c4ccnc5[nH]nc(N[C@@H]6CCCNC6)c45)cc3F)CC2)no1` [Example 121, 5-tert-butyl-N-{1-[2-fluoro-4-(3-{[(3R)-piperidin-3-yl]amino}-1H-pyrazolo[3,4-b]pyridin-4-yl)phenyl]cyclopropyl}-1,2,4-oxadiazole-3-carboxamide], the figures for the IC50 at panel of kinases, on Btk (setting [1]) and on TEC were more than 10000 nM, 210 nM and more than 10000 nM, respectively. Besides, the TEC/Btk on TEC is more than 100.

Take `Cn1c(C(=O)NCc2ccc(-c3ccnc4[nH]nc(N[C@@H]5CCNC5)c34)cc2F)cc2c1CC(C)(C)C2` [Example 157, N-{[2-fluoro-4-(3-{[(3R)-pyrrolidin-3-yl]amino}-1H-pyrazolo[3,4-b]pyridin-4-yl)phenyl]methyl}-1,5,5-trimethyl-1H,4H,5H,6H-cyclopenta[b]pyrrole-2-carboxamide]: the IC50 at panel of kinases, on Btk (setting [1]) and at TEC was more than 10000 nM each time.

As to `CC(C)(C)c1nc(C(=O)Nc2cccc(-c3ccnc4[nH]nc(N[C@@H]5CCNC5)c34)c2CO)no1` [Example 165, t-tert-butyl-N-[2-(hydroxymethyl)-3-(3-{[(3R)-pyrrolidin-3-yl]amino}-1H-pyrazolo[3,4-b]pyridin-4-yl)phenyl]-1,2,4-oxadiazole-3-carboxamide], the concentration for half-maximal inhibition (IC50) at panel of kinases, at Btk (setting [1]) and against TEC was more than 10000 nM in each case. In addition, the TEC/Btk on TEC is reported as more than 100.

Turning to `CC(C)(C)c1ccc(C(=O)NCc2ccc(-c3ccnc4[nH]nc(N[C@H]5CC[C@H](O)CC5)c34)cc2)cc1` [Compound 23, 4-tert-butyl-N-{[4-(3-{[(1r,4r)-4-hydroxycyclohexyl]amino}-1H-pyrazolo[3,4-b]pyridin-4-yl)phenyl]methyl}benzamide], the IC50 on panel of kinases, on Btk (setting [1]) and on TEC was more than 10000 nM throughout.

Regarding `C=CC(=O)N1CC[C@@H](Nc2n[nH]c3nccc(-c4ccc(CN5CCc6cc(C(C)(C)C)ccc6C5=O)c(F)c4)c23)C1` [Compound 43, 6-tert-butyl-2-{[2-fluoro-4-(3-{[(3R)-1-(prop-2-enoyl)pyrrolidin-3-yl]amino}-1H-pyrazolo[3,4-b]pyridin-4-yl)phenyl]methyl}-1,2,3,4-tetrahydroisoquinolin-1-one], the IC50 at panel of kinases was found to be 394 nM; at Btk (setting [1]) it was 2.76 nM; at TEC, 599 nM. Further, the TEC/Btk at TEC was 217.

Turning to `C=CC(=O)N1CC[C@@H](Nc2n[nH]c3nccc(-c4cccc(NC(=O)c5ccc(C(C)(C)C)cc5)c4CO)c23)C1` [Example 161, 4-tert-butyl-N-[2-(hydroxymethyl)-3-(3-{[(3R)-1-(prop-2-enoyl)pyrrolidin-3-yl]amino}-1H-pyrazolo[3,4-b]pyridin-4-yl)phenyl]benzamide], the IC50 at panel of kinases was 275 nM; at Btk (setting [2]) it was less than 10 nM; on Btk (setting [1]), 0.57 nM; against TEC, 318 nM. Further, the TEC/Btk on TEC is given as 558.

As for `CC(C)(C)c1nc(C(=O)NCc2ccc(-c3ccnc4[nH]nc(C5=CCNC5)c34)cc2F)no1` [Example 280, 5-tert-butyl-N-({4-[3-(2,5-dihydro-1H-pyrrol-3-yl)-1H-pyrazolo[3,4-b]pyridin-4-yl]-2-fluorophenyl}methyl)-1,2,4-oxadiazole-3-carboxamide], the IC50 on panel of kinases amounted to 1720 nM; on Btk (setting [1]) it was 8.84 nM; on TEC, 2150 nM. The TEC/Btk at TEC is on record as 243.

For the compound `C=CC(=O)N1CC[C@@H](Nc2n[nH]c3nccc(-c4ccc(NC(=O)Nc5noc(C(C)(C)C)n5)c(F)c4)c23)C1` [Example 156, 3-(5-tert-butyl-1,2,4-oxadiazol-3-yl)-1-[2-fluoro-4-(3-{[(3R)-1-(prop-2-enoyl)pyrrolidin-3-yl]amino}-1H-pyrazolo[3,4-b]pyridin-4-yl)phenyl]urea], the IC50 worked out at 111 nM on panel of kinases, 639 nM at Btk (setting [1]) and 407 nM against TEC. Further, at TEC, the TEC/Btk was determined as 1.

As to `CC(C)(C)c1noc(C(=O)NCc2ccc(-c3ccnc4[nH]nc(N5CC[C@H](N)C5)c34)cc2F)n1` [Example 159, N-[(4-{3-[(3S)-3-aminopyrrolidin-1-yl]-1H-pyrazolo[3,4-b]pyridin-4-yl}-2-fluorophenyl)methyl]-3-tert-butyl-1,2,4-oxadiazole-5-carboxamide], the IC50 is 1820 nM on panel of kinases, less than 10 nM on Btk (setting [2]), 1.45 nM on Btk (setting [1]) and 591 nM against TEC. Moreover, the TEC/Btk at TEC is 408.

For the compound `C[C@H]1CC[C@@H](Nc2n[nH]c3nccc(-c4ccc(CNC(=O)c5nc(C(C)(C)C)no5)c(F)c4)c23)CN1C1COC1` [Example 411, 3-tert-butyl-N-{[2-fluoro-4-(3-{[(3R,6S)-6-methyl-1-(oxetan-3-yl)piperidin-3-yl]amino}-1H-pyrazolo[3,4-b]pyridin-4-yl)phenyl]methyl}-1,2,4-oxadiazole-5-carboxamide], the IC50 was found to be 9390 nM on panel of kinases, 9.53 nM on Btk (setting [1]) and 2270 nM at TEC.

Consider `CC(C)(C)c1noc(C(=O)NC2(c3ccc(-c4ccnc5[nH]nc(N[C@@H]6CCNC6)c45)cc3)CC2)n1` [Example 71, 3-tert-butyl-N-{1-[4-(3-{[(3R)-pyrrolidin-3-yl]amino}-1H-pyrazolo[3,4-b]pyridin-4-yl)phenyl]cyclopropyl}-1,2,4-oxadiazole-5-carboxamide], for which the IC50 is more than 10000 nM on panel of kinases, 42.2 nM on Btk (setting [1]) and more than 10000 nM against TEC. Also, the TEC/Btk at TEC is on record as more than 100.

For the compound `C[C@H]1CC[C@@H](Nc2n[nH]c3nccc(-c4ccc(CNC(=O)c5nc(C(C)(C)C)no5)c(F)c4)c23)CN1C(=O)N1CCOCC1` [Example 409, 3-tert-butyl-N-{[2-fluoro-4-(3-{[(3R,6S)-6-methyl-1-(morpholine-4-carbonyl)piperidin-3-yl]amino}-1H-pyrazolo[3,4-b]pyridin-4-yl)phenyl]methyl}-1,2,4-oxadiazole-5-carboxamide], the IC50 at panel of kinases was found to be 863 nM; on Btk (setting [1]), 0.546 nM; on TEC, 177 nM.

Consider `C=CC(=O)N[C@@H]1CCN(c2n[nH]c3nccc(-c4ccc(CNC(=O)c5ccc(C(C)(C)O)cc5)c(F)c4)c23)C1` [Example 325, N-{[2-fluoro-4-(3-{(3R)-3-[(prop-2-enoyl)amino]pyrrolidin-1-yl}-1H-pyrazolo[3,4-b]pyridin-4-yl)phenyl]methyl}-4-(2-hydroxypropan-2-yl)benzamide], for which the IC50 on panel of kinases came out at 87.1 nM; on Btk (setting [1]), 0.163 nM; at TEC it was 31.3 nM.

Regarding `C[C@H](NC(=O)c1noc(C(C)(C)C)n1)c1ccc(-c2ccnc3[nH]nc(N[C@@H]4CCNC4)c23)cc1` [Example 72, 5-tert-butyl-N-[(1S)-1-[4-(3-{[(3R)-pyrrolidin-3-yl]amino}-1H-pyrazolo[3,4-b]pyridin-4-yl)phenyl]ethyl]-1,2,4-oxadiazole-3-carboxamide], the IC50 at panel of kinases, at Btk (setting [1]) and against TEC was more than 10000 nM in each case. Further, the TEC/Btk on TEC was more than 100.

The record behind these values is patent US20180194762A1 (Pharmacyclics LLC, priority 2017, published 2018).
